# Results from patent US20240158391A1, “DERIVATIVES OF 4-(IMIDAZO[1,2-A]PYRIDIN-3-YL)-N-(PYRIDIN-3-YL) PYRIMIDIN-2- AMINE FOR TREATING PROLIFERATIVE DISEASES AND CONDITIONS” (AUCENTRA THERAPEUTICS PTY LTD, priority 2019, published 2024).
# What was measured:
# CDK1/CyclinB = CDK1/CyclinB (Homo sapiens, UniProt P06493); assay: ADP Glo kinase assay, CDK1/CyclinB; assay type: biochemical; conditions: for remaining activity at 1 µM: compound at 1 μM, read-out: Residual enzymatic activity (%) at 1 μM, CDK1 B; for Ki: Km ATP, read-out: Enzymatic inhibition, Ki, CDK1 B
# Summary of the method: (§1)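 Test compounds were run as 1:3 serial dilutions over 10 concentrations (10-0.0005 μM) in 0.5% DMSO. Kinase reactions proceeded for an optimised time at room temperature before being stopped with ADP Glo reagent.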
# CDK4/CyclinD1 = CDK4/CyclinD1 (Homo sapiens, UniProt P11802); assay: ADP Glo kinase assay, CDK4/CyclinD1; assay type: biochemical; conditions: for remaining activity at 1 µM: compound at 1 μM, read-out: Residual enzymatic activity (%) at 1 μM, CDK4 D1; for Ki: Km ATP, read-out: Enzymatic inhibition, Ki, CDK4 D1
# Summary of the method: as §1
# CDK2/CyclinA2 = CDK2/CyclinA2 (Homo sapiens, UniProt P24941); assay: ADP Glo kinase assay, CDK2/CyclinA2; assay type: biochemical; conditions: for Ki: Km ATP, read-out: Enzymatic inhibition, Ki, CDK2 A; for remaining activity at 1 µM: compound at 1 μM, read-out: Residual enzymatic activity (%) at 1 μM, CDK2 A
# Summary of the method: as §1
# FLT3-ITD = biological target: T1, FLT3-ITD (Homo sapiens, UniProt P36888); assay: ADP Glo kinase assay, FLT3-ITD; assay type: biochemical; conditions: Km ATP 100 μM, read-out: Enzymatic inhibition, Ki, FLT3-ITD
# T1 sequence (P36888 1-993): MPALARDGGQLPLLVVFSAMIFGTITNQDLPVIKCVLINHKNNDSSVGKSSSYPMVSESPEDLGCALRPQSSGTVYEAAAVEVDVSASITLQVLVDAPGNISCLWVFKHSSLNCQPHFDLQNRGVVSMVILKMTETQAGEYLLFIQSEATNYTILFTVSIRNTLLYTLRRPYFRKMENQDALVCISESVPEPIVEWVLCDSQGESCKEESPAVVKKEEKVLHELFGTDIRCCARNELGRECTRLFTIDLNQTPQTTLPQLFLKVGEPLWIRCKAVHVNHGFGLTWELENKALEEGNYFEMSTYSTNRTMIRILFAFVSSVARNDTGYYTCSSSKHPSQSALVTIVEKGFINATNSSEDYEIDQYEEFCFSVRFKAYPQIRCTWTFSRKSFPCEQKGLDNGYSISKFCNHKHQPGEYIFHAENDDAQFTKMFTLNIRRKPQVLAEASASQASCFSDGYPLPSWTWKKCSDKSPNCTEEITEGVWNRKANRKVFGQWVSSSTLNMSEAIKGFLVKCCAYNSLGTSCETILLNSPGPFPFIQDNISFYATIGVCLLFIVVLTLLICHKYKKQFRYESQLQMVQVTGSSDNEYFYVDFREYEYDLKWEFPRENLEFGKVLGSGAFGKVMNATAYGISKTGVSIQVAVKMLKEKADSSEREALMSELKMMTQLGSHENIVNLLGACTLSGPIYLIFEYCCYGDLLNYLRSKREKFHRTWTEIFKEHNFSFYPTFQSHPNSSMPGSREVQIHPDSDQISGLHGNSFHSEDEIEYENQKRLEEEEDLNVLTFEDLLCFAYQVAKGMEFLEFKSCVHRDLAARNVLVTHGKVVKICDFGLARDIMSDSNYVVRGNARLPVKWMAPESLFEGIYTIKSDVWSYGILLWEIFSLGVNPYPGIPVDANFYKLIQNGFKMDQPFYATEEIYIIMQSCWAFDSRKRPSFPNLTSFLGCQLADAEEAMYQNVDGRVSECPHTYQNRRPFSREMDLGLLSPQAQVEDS
# Summary of the method: as §1
# CDK7/CyclinH/Mat1 = CDK7/CyclinH/Mat1 (Homo sapiens, UniProt P50613); assay: ADP Glo kinase assay, CDK7/CyclinH/Mat1; assay type: biochemical; conditions: for remaining activity at 1 µM: compound at 1 μM, read-out: Residual enzymatic activity (%) at 1 μM, CDK7 H; for Ki: Km ATP, read-out: Enzymatic inhibition, Ki, CDK7 H
# Summary of the method: as §1
# CDK9/CyclinT1 = CDK9/CyclinT1 (Homo sapiens, UniProt P50750); assay: ADP Glo kinase assay, CDK9/CyclinT1; assay type: biochemical; conditions: for Ki: CDK9/CyclinT1, Km ATP, read-out: Enzymatic inhibition, Ki, CDK9 T1
# Summary of the method: as §1
# MV-4-11 = assay: Proliferation assay (resazurin, leukemia cell lines), MV-4-11; assay type: cell-based; conditions: Homo sapiens, MV4-11, read-out: 72 h Growth inhibition GI50, MV-4-11 cells
# Text: The following compounds were used as comparators.
# CDK6/CyclinD3 = CDK6/CyclinD3 (Homo sapiens, UniProt Q00534); assay: ADP Glo kinase assay, CDK6/CyclinD3; assay type: biochemical; conditions: for remaining activity at 1 µM: compound at 1 μM, read-out: Residual enzymatic activity (%) at 1 μM, CDK6 D3; for Ki: Km ATP, read-out: Enzymatic inhibition, Ki, CDK6 D3
# Summary of the method: as §1
# Chain of CDK1/CyclinB (P06493 whole entry, species assumed): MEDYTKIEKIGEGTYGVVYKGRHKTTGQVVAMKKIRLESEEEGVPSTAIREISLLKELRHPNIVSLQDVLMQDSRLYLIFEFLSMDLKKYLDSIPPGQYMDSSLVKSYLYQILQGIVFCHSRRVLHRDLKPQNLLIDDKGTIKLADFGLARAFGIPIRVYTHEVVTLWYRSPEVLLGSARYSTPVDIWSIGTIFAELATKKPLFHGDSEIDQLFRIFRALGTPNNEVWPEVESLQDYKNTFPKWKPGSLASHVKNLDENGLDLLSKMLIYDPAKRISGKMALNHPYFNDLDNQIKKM
# Chain of CDK1/CyclinB (P14635 whole entry partner, species assumed): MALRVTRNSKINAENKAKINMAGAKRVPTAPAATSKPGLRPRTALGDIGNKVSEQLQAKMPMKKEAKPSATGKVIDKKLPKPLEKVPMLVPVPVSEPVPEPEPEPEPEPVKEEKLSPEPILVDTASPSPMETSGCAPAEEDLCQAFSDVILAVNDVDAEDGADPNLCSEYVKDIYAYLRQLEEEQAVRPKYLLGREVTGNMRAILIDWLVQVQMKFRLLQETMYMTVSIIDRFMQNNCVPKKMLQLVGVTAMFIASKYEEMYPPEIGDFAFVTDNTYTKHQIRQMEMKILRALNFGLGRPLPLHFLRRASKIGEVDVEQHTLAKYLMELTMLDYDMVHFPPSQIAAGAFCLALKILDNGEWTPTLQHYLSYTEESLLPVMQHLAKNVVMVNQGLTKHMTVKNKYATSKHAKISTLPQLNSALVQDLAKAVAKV
# Chain of CDK6/CyclinD3 (Q00534 whole entry, species assumed): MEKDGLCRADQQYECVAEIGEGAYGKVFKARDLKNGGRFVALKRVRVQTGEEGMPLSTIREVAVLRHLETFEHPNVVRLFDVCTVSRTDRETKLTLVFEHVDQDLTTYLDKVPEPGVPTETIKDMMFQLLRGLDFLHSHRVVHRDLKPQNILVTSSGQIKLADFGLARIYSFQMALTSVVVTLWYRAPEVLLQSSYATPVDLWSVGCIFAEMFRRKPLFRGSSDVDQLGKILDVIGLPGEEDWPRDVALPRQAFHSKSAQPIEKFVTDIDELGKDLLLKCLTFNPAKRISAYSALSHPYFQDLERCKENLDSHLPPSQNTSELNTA
# Chain of CDK6/CyclinD3 (P30281 whole entry partner, species assumed): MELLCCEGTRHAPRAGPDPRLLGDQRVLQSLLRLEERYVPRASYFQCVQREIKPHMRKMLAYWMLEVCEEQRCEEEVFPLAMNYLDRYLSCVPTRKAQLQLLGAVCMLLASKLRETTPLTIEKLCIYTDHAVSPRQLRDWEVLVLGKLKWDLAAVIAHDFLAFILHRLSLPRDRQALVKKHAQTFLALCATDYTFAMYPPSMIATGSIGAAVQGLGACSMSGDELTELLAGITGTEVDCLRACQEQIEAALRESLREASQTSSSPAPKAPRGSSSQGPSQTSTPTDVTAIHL
# Chain of CDK4/CyclinD1 (P11802 whole entry, species assumed): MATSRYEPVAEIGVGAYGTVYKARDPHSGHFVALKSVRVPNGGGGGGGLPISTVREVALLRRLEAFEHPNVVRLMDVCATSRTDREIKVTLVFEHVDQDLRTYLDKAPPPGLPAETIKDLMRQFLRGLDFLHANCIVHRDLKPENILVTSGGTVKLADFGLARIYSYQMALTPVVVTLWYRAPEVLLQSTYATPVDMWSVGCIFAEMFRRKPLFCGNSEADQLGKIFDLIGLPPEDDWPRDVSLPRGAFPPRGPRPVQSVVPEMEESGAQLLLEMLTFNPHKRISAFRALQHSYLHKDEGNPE
# Chain of CDK4/CyclinD1 (P24385 whole entry partner, species assumed): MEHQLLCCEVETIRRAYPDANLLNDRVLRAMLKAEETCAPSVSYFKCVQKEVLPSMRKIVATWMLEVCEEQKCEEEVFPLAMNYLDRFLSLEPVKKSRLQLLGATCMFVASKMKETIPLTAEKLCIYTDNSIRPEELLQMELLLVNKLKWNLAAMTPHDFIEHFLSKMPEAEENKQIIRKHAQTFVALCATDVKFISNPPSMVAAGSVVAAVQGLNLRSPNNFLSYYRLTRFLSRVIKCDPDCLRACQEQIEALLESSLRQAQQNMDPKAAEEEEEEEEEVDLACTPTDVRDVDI
# Chain of CDK7/CyclinH/Mat1 (P50613 whole entry, species assumed): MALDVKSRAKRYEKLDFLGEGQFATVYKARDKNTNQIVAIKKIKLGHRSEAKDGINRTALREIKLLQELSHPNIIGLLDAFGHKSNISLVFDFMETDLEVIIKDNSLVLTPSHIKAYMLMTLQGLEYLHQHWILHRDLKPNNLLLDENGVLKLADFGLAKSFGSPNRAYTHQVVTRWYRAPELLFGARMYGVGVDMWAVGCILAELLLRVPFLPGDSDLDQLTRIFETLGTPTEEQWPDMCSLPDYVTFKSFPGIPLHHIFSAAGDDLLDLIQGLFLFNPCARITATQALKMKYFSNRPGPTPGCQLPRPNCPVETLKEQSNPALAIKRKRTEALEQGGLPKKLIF
# Chain of CDK7/CyclinH/Mat1 (P51946 whole entry partner, species assumed): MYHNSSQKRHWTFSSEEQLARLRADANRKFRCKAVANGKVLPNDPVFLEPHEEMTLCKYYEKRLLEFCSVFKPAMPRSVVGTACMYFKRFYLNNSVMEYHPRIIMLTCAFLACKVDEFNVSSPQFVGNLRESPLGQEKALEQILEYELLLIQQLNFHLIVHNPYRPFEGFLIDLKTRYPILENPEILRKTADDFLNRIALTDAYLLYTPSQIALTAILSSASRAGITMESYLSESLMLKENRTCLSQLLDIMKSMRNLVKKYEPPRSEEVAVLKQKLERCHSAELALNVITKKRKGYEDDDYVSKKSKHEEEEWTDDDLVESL
# Chain of CDK7/CyclinH/Mat1 (P51948 whole entry partner, species assumed): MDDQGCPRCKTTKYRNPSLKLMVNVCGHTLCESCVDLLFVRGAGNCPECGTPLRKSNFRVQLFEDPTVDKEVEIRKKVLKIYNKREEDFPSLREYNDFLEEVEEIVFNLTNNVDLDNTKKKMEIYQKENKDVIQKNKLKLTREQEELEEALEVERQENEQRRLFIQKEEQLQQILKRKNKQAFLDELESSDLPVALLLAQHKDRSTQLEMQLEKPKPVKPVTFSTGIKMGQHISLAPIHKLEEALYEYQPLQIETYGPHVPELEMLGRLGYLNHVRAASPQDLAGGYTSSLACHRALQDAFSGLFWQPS
# Chain of CDK9/CyclinT1 (P50750 whole entry, species assumed): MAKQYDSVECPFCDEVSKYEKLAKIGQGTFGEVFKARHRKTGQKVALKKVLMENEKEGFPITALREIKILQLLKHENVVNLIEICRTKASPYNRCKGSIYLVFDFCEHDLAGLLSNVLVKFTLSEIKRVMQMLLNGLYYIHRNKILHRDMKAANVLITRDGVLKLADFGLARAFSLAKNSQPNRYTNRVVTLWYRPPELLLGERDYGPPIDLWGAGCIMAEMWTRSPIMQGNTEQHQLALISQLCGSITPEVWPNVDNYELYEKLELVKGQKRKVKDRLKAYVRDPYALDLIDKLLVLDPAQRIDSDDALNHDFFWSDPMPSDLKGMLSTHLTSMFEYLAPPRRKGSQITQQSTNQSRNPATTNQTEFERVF
# Chain of CDK9/CyclinT1 (O60563 whole entry partner, species assumed): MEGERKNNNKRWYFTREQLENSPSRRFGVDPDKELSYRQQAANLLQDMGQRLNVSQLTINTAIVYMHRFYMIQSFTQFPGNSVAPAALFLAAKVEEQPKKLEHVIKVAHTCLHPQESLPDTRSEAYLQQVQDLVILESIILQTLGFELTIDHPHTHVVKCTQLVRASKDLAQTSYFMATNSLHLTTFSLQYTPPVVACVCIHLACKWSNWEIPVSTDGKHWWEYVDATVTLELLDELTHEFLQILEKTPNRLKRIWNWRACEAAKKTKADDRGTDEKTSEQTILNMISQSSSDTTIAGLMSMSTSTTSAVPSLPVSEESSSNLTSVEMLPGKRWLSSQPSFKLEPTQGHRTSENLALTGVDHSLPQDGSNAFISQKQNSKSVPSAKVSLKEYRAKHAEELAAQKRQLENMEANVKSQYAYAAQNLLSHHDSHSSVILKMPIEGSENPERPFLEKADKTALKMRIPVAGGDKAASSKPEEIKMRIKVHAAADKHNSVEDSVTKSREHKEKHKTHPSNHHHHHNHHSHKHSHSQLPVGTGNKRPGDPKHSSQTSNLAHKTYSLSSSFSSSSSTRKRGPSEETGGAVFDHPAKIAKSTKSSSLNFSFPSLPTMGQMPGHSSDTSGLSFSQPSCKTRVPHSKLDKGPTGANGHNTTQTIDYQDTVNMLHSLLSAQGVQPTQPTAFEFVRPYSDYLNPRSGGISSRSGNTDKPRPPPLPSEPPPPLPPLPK
SMILES,remaining activity at 1 µM (CDK1/CyclinB) [%],remaining activity at 1 µM (CDK4/CyclinD1) [%],Ki (CDK2/CyclinA2) [nM],Ki (FLT3-ITD) [nM],remaining activity at 1 µM (CDK7/CyclinH/Mat1) [%],Ki (CDK9/CyclinT1) [nM],GI50 (MV-4-11) [nM],remaining activity at 1 µM (CDK6/CyclinD3) [%],Ki (CDK7/CyclinH/Mat1) [nM],Ki (CDK1/CyclinB) [nM],Ki (CDK6/CyclinD3) [nM],Ki (CDK4/CyclinD1) [nM],remaining activity at 1 µM (CDK2/CyclinA2) [%],"inhibition of CDK9 (in words) (CDK9/CyclinT1; compared with comparator compounds A, B and C (N-(pyridin-2-yl)pyrimidin-2-amine moiety))"
"CCN1CCN(Cc2ccc(Nc3nccc(-c4cnc5ccc(Br)cn45)n3)cn2)CC1 [Compound 79, 4-(6-Bromoimidazo[1,2-a]pyridin-3-yl)-N-(6-((4-ethylpiperazin-1-yl)methyl)pyridin-3-yl)pyrimidin-2-amine]",70,48,42,70,–,57,38,27,168,–,–,–,–,–
"Brc1ccc2ncc(-c3ccnc(Nc4ccc(N5CCNCC5)nc4)n3)n2c1 [Compound 42, 4-(6-Bromoimidazo[1,2-a]pyridin-3-yl)-N-(6-(piperazin-1-yl)pyridin-3-yl)pyrimidin-2-amine]",–,24,31,9,27,29,22,–,–,78,> 500,–,–,–
"CS(=O)(=O)N1CCN(c2ccc(Nc3nccc(-c4cnc5ccc(-c6ccccc6)cn45)n3)cn2)CC1 [Compound 17, N-(6-(4-(Methylsulfonyl)piperazin-1-yl)pyridin-3-yl)-4-(6-phenylimidazo[1,2-a]pyridin-3-yl)pyrimidin-2-amine]",–,–,> 1000,16,–,28,6,–,> 1000,> 5000,> 5000,> 500,–,–
"O=C(NC1CC1)c1ccc(Nc2ncc(F)c(-c3cnc4ccc(-c5ccccc5)cn34)n2)cn1 [Compound 33, N-Cyclopropyl-5-((5-fluoro-4-(6-phenylimidazo[1,2-a]pyridin-3-yl)pyrimidin-2-yl)amino) picolinamide]",59,96,–,> 1000,100,> 500,296,46,–,–,–,–,83,–
"CCN1CCN(Cc2ccc(Nc3nccc(-c4cnc5ccc(-c6ccccc6)cn45)n3)cn2)CC1 [Compound 80, N-(6-((4-Ethylpiperazin-1-yl)methyl)pyridin-3-yl)-4-(6-phenylimidazo[1,2-a]pyridin-3-yl)pyrimidin-2-amine]",92,81,–,60,–,60,102,59,222,–,–,–,37,–
"COc1ccc(-c2ccc3ncc(-c4ccnc(Nc5ccc(N6CCN(C)CC6)nc5)n4)n3c2)cn1 [Compound 43, 4-(6-(6-Methoxypyridin-3-yl)imidazo[1,2-a]pyridin-3-yl)-N-(6-(4-methylpiperazin-1-yl)pyridin-3-yl)pyrimidin-2-amine]",67,68,–,24,41,66,40,46,–,–,–,–,46,–
"c1ccc(-c2ccc3ncc(-c4ccnc(Nc5ccc(N6CCCC6)nc5)n4)n3c2)cc1 [Compound 27, 4-(6-Phenylimidazo[1,2-a]pyridin-3-yl)-N-(6-(pyrrolidin-1-yl)pyridin-3-yl)pyrimidin-2-amine]",84,97,–,109,–,> 5000,196,61,> 5000,–,–,–,37,–

# The next lines start with results.
remaining activity at 1 µM (CDK1/CyclinB) [%],remaining activity at 1 µM (CDK4/CyclinD1) [%],Ki (CDK2/CyclinA2) [nM],Ki (FLT3-ITD) [nM],remaining activity at 1 µM (CDK7/CyclinH/Mat1) [%],Ki (CDK9/CyclinT1) [nM],GI50 (MV-4-11) [nM],remaining activity at 1 µM (CDK6/CyclinD3) [%],Ki (CDK7/CyclinH/Mat1) [nM],Ki (CDK1/CyclinB) [nM],Ki (CDK6/CyclinD3) [nM],Ki (CDK4/CyclinD1) [nM],remaining activity at 1 µM (CDK2/CyclinA2) [%],SMILES,"inhibition of CDK9 (in words) (CDK9/CyclinT1; compared with comparator compounds A, B and C (N-(pyridin-2-yl)pyrimidin-2-amine moiety))"
41,57,344,11,32,12,47,52,–,–,–,–,–,"CC(C)N1CCN(c2ccc(Nc3nccc(-c4cnc5ccc(-c6ccncc6)cn45)n3)cn2)CC1 [Compound 40, N-(6-(4-Isopropylpiperazin-1-yl)pyridin-3-yl)-4-(6-(pyridin-4-yl)imidazo[1,2-a]pyridin-3-yl)pyrimidin-2-amine]",–
46,55,563,12,–,9,88,41,149,–,–,–,–,"CC(C)N1CCN(c2ccc(Nc3nccc(-c4cnc5ccc(-c6ccccc6)cn45)n3)cn2)CC1 [Compound 39, N-(6-(4-Isopropylpiperazin-1-yl)pyridin-3-yl)-4-(6-phenylimidazo[1,2-a]pyridin-3-yl)pyrimidin-2-amine]",–
–,–,2,18,–,50,6,–,895,61,451,> 500,–,"CC(=O)N1CCN(c2ccc(Nc3ncc(F)c(-c4cnc5ccccn45)n3)cn2)CC1 [Compound 10, 1-(4-(5-((5-Fluoro-4-(imidazo[1,2-a]pyridin-3-yl)pyrimidin-2-yl)amino)pyridin-2-yl)piperazin-1-yl)ethan-1-one]",–
91,94,–,210,51,410,813,79,–,–,–,–,90,"Cc1cnc(Nc2ccc(N3CCN(C)CC3)nc2)nc1-c1cnc2ccc(-c3ccccc3)cn12 [Compound 50, 5-Methyl-N-(6-(4-methylpiperazin-1-yl)pyridin-3-yl)-4-(6-phenylimidazo[1,2-a]pyridin-3-yl)pyrimidin-2-amine]",–
60,91,–,444,79,54,12,60,–,–,–,–,63,"CC(=O)N1CCN(c2ccc(Nc3nccc(-c4cnc5ccc(-c6ccccc6)cn45)n3)cn2)CC1 [Compound 45, 1-(4-(5-((4-(6-Phenylimidazo[1,2-a]pyridin-3-yl)pyrimidin-2-yl)amino)pyridin-2-yl)piperazin-1-yl)ethan-1-one]",–
74,52,40,70,40,51,35,48,–,–,–,–,–,"CN1CCN(Cc2ccc(Nc3nccc(-c4cnc5ccc(Br)cn45)n3)cn2)CC1 [Compound 77, 4-(6-Bromoimidazo[1,2-a]pyridin-3-yl)-N-(6-((4-methylpiperazin-1-yl)methyl)pyridin-3-yl)pyrimidin-2-amine]",–
–,–,177,4,–,< 0.1,4,–,238,265,> 5000,229,–,"CN1CCN(c2ccc(Nc3nccc(-c4cnc5ccc(-c6ccccc6)cn45)n3)cn2)CC1 [Compound 6, N-(6-(4-Methylpiperazin-1-yl)pyridin-3-yl)-4-(6-phenylimidazo[1,2-a]pyridin-3-yl)pyrimidin-2-amine]",dramatically and surprisingly increased the potency of inhibition of CDK9
